Reference: patent US20060216299A1, “Cell cycle targets and peptides” (Rigel Pharmaceuticals, Inc., priority 2002, published 2006)
Where no end group is shown, it is not given here.

How the values were obtained:
A549.tTA cells [1] = test: Cell tracker assay (Dil) of GFP fusion peptides; assay type: cell-based; conditions: for anti-proliferative effect (cell tracker assay, in words): GFP-fused peptides expressed in A549.tTA cells; for cell death after infection of retrovirus encoding GFP fused peptides: A549.tTA cells, data not shown
Procedure: A549.tTA cells were infected with tet-regulatable retroviruses expressing GFP fusion peptides, stained with the cell tracker dye, Dil, and incubated at 37° C. for five days. After the incubation, fluorescent intensity of GFP and Dil was analyzed with MoFlo. A growth ratio was obtained as the ratio of mean Dil fluorescent intensity for the GFP positive population relative to that of the GFP negative population.
Effect of GFP fused peptides and their mutants. GFP fused peptides (#40, #41, #88 and their mutants) expressing A549.tTA cells were stained with Dil and fluorescent intensity of GFP and Dil was examined with MoFlo. A growth ratio was obtained as described above. Mutated residues were underlined. Amino acid sequences of #40, #41, and #88 were aligned with leucine-rich motifs of HIV-1 Rev (amino acid position 75 to 84, gi|16118296|gb|AAL12672.1|), HTLV-1 Rex (amino acid position 82 to 93, gi|7963889|gb|AAF71372.1), Mitogen-activated protein kinase kinase 1, MAPKK, (amino acid position 33 to 43, gi|5579478|ref|NP_002746.1|), Human homologue of mouse double minute 2, Hdm-2, (amino acid position 190 to 200, gi|4505137|ref|NP_002383.1|), and Protein kinase inhibitor, PKI (amino acid position 38 to 48, gi|203271|gb|AAA40867.1|).
Effect of GFP fused peptides and their mutants. A549.tTA cells were infected with retroviruses encoding GFP fusion peptides (#38 and its mutants) and stained with the cell tracker dye, Dil. After the infection, fluorescent intensity of GFP and Dil was examined with MoFlo. A growth ratio was obtained as the ratio of mean Dil fluorescent intensity for the GFP positive population relative to that of the GFP negative population and data are shown as mean±SE in duplicate. Mutated residues or non-identical residues of the C-terminus of cell division cycle 42 isoform 2, CDC42C, (amino acid position 183 to 191, gi|16357472|ref|NP_426359.1|) to #38 were underlined. As controls, entire GFP-C20 library, dsGFP and GFP fused p21C expressing A549.tTA cells were used.

A549.tTA cells [2] = test: Cell cycle analysis (Hoechst 33258) of cells expressing GFP fusion peptides; assay type: cell-based, human; conditions: GFP low (R1) and GFP high (R2) populations
Procedure: A549.tTA cells expressing GFP fusion peptides were fixed with Cell Fixation/Permeabilization Kits (BD bioscience, Lexington, Ky., U.S.A.) as manufacturer's recommendation and stained with 5 mM Hoechst 33258 (Sigma, St. Louis, Mo., U.S.A.). GFP and Hoechst fluorescent intensity was analyzed with MoFlo.

A549 cells = test: High content imaging of anti-proliferative synthetic K7 peptides (nuclei and apoptotic nuclei, 24 hours); assay type: cell-based, human
Procedure: A549 cells (American Type Culture Collection (ATCC), Manassas, Va., U.S.A.) were plated at 2000 cells/well in 96 well plates with F12K media supplemented with 10% fetal bovine serum and 1% penicillin/streptomycin and allowed to grow for 24 hours. Peptide dissolved in media was added to the cells to a final concentration ranging from 0.8 to 25 uM in triplicate. Following incubation with peptide for 24 hours, cells were fixed with 3.7% formaldehyde for 30 minutes, rinsed in PBS and stained with DAPI (Molecular Probes) to label nuclear DNA. Digital images were taken of the labeled nuclei in each well using a Zeiss Axiovert microscope, UV filter set and Photometrics camera.

[3] = tested on: A549 lung carcinoma cells; test: Fluorescence microscopy examination of A549 cells exposed to lys7-peptides (nuclei, apoptosis, cell cycle stage, 48 hours); assay type: cell-based, human
Procedure: A549 tumor cells (American Type Culture Collection, Fairfax Va.) were plated at 2000 cells per well in 96 well plates with F12k media supplemented with 10% fetal bovine serum and 1% penicillin/streptomycin and allowed to grow for 24 hours. Peptide dissolved in media was added to the cells to a final concentration of 0.8 to 100 uM in triplicate. Following incubation with peptide for 24 or 48 hours, cells were fixed with 3.7% formaldehyde for 30 minutes, rinsed in PBS and stained with DAPI (Molecular Probes, OR) to label nuclear DNA. Digital images of the labeled nuclei in each well were taken using a Zeiss Axiovert microscope, UV filter set and Photometrics camera.

[4] = tested on: A549 cells expressing GFP fusion #38 and #41; test: Displacement of cellular localization of GFP fusion peptides by synthetic analogues; assay type: cell-based, human; conditions: 100 μM peptide, 5 hours
Procedure: GFP fused #38, #40, and #41 were concentrated at the plasma membrane and granular cytoplasmic structures. […] We examined whether synthetic analogues can displace cellular localization of GFP fusion peptides. A549 cells expressing GFP fusion #38 and #41 were incubated with 100 μM of K7—#41, K7—#41M and K7—#40 for 5 hours and GFP localization was analyzed using a fluorescent microscope.

[5] = Table 2, GFP fusion #38 and mutants in A549.tTA cells, ratio of mean Dil intensity, GFP positive relative to GFP negative, duplicate
[6] = Table 1, GFP fused peptides in A549.tTA cells, ratio of mean Dil fluorescent intensity, GFP positive relative to GFP negative population, five days

Substance | anti-proliferative effect (cell tracker assay, in words) (A549.tTA cells [1]) | Growth Ratio (mean ± SE) (A549.tTA cells [1]; [5]) | Growth Ratio (mean ± SE) (A549.tTA cells [1]; [6]) | also measured
AALEPPETQPKRKCCIF [CDC42C, C-terminal 17 residues of cell division cycle 42 isoform 2, expressed as GFP-fused peptide, reference compound] | no significant anti-proliferative activity | 1.3 ± 0.1 | – | –
ASGLLKLVQAKRKCCIS (cysteine pairing not given here; also: GFP fusion) [#38(T1A)] | – | 3.5 ± 0.2 | – | –
GRGCIFRWRRGARGMARAFK (also: GFP fusion) [#41(L12A/M16A/L18A)] | no significant localization or anti-proliferative effect | – | 1.1 ± 0.1 | –
GRGCIFRWRRGLRGMARAFK (also: GFP fusion) [#41(M16A/L18A)] | reduced the anti-proliferative effect | – | 1.5 | –
GRGCIFRWRRGLRGMMRAFK (also: GFP fusion) [#41(L18A)] | partial loss of the anti-proliferative effect | – | 1.7 | –
GRGCIFRWRRGLRGMMRLFK (also: GFP fusion) [#41, anti-proliferative peptide tested as GFP fusion] | significant inhibitors of cell proliferation | – | 2.7 ± 0.2 | cell cycle profile (DNA content, Hoechst 33258) (A549.tTA cells [2]): arrested in G0/G1; cell death after infection of retrovirus encoding GFP fused peptides (A549.tTA cells [1]): did not observe massive cell death
KRRQTSMTDFYHSKRRLIFSKRKP [p21C, reference compound] | significant antiproliferative effect | 4.5 ± 0.8 | 4.5 ± 0.8 | –
QAKRKCCIS ({GFP}-QAKRKCCIS; cysteine pairing not given here; also: fused to GFP C-terminus) [#38NΔ(1-8)] | – | 1.5 ± 0.1 | – | –
RLRRICSGILLARRIAGAFVRPVRP (also: GFP fusion) [#88(I12AILI6A/118A)] | – | – | 1.1 ± 0.1 | –
RLRRICSGILLIRRIAGAFVRPVRP (also: GFP fusion) [#88(L16A/L18A)] | – | – | 1.1 | –
RLRRICSGILLIRRILGAFVRPVRP (also: GFP fusion) [#88(118A)] | – | – | 1.5 | –
RLRRICSGILLIRRILGIFVRPVRP [#88] | significant inhibitors of cell proliferation | – | 2.7 ± 0.4 | cell cycle profile (DNA content, Hoechst 33258) (A549.tTA cells [2]): no significant change in the DNA content profile; cell death after infection of retrovirus encoding GFP fused peptides (A549.tTA cells [1]): did not observe massive cell death
RWDPTRLLRARFARALVRRSRPVRP (also: GFP fusion) [#40(F10A/L13A/M15A)] | – | – | 1.3 ± 0.1 | –
RWDPTRLLRFRFARALVRRSRPVRP (also: GFP fusion) [#40(L13A/M15A)] | – | – | 1.6 ± 0.2 | –
RWDPTRLLRFRFLRALVRRSRPVRP (also: GFP fusion) [#40(M15A)] | – | – | 2.0 | –
RWDPTRLLRFRFLRMLVRRSRPVRP (also: GFP fusion) [#40, anti-proliferative peptide tested as GFP fusion] | significant inhibitors of cell proliferation | – | 2.4 ± 0.3 | cell cycle profile (DNA content, Hoechst 33258) (A549.tTA cells [2]): no significant change in the DNA content profile; cell death after infection of retrovirus encoding GFP fused peptides (A549.tTA cells [1]): did not observe massive cell death
TAGLLKLVQAKRKCCIS (cysteine pairing not given here; also: GFP fusion) [#38(S2A)] | enhanced | 5.5 ± 0.8 | – | –
TSALLKLVQAKRKCCIS (cysteine pairing not given here; also: GFP fusion) [#38(G3A)] | – | 2.7 ± 0.2 | – | –
TSGALKLVQAKRKCCIS (cysteine pairing not given here; also: GFP fusion) [#38(L4A)] | – | 2.2 ± 0.1 | – | –
TSGLAKLVQAKRKCCIS (cysteine pairing not given here; also: GFP fusion) [#38(L5A)] | – | 1.9 ± 0.2 | – | –
TSGLLALVQAKRKCCIS (cysteine pairing not given here; also: GFP fusion) [#38(K6A)] | reduced anti-proliferative effect | 1.4 ± 0.1 | – | –
TSGLLKAVQAKRKCCIS (cysteine pairing not given here; also: GFP fusion) [#38(L7A)] | – | 2.0 ± 0.2 | – | –
TSGLLKLAQAKRKCCIS (cysteine pairing not given here; also: GFP fusion) [#38(V8A)] | – | 2.7 ± 0.2 | – | –
TSGLLKLVQAKRKACIS (not fully specified (N-terminus)) [#38(C14A)] | – | 1.1 ± 0.1 | – | –
TSGLLKLVQAKRKCCIS ({GFP}-TSGLLKLVQAKRKCCIS; not fully specified; cysteine pairing not given here) [#38, 17mer anti-proliferative peptide with CAAX box motif, tested fused to the C-terminus of GFP] | significant inhibitors of cell proliferation | 2.5 ± 0.2 | – | cell cycle profile (DNA content, Hoechst 33258) (A549.tTA cells [2]): arrested in G0/G1; cell death after infection of retrovirus encoding GFP fused peptides (A549.tTA cells [1]): did not observe massive cell death
synthetic #40 fused with seven Lys (K7) via a linker (GGEEAAKA) at the N-terminus [K7—#40] | – | – | – | apoptotic nuclei (A549 cells): increase in apoptotic nuclei; number of observed cell nuclei remaining ([3]; A549 cells, 48 hours exposure, increasing doses): ca. 10 % of original values; cell cycle stage distribution ([3]; asynchronously growing A549 cells, 48 hours, remaining cells that have not undergone apoptosis): depletion of G1 cells, a complete loss of S and G2 cells at 100 mM levels, and an increase in M phase cells; change of cellular localization of GFP fusion #41 [4]: these changes were not seen
